Laboratory results taken from ChEMBL document CHEMBL1201862, “PubChem BioAssay data set” (2004).
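Where inhibition never reached the appropriate level, the endpoint shown equals the highest concentration tested. Otherwise, values were interpolated linearly from a five-concentration, 48-hour dose response in 96-well plates. Abbreviation: GI50, concentration required for 50% inhibition of growth.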 Activity calls are given as the source filed them. No stated cut-off is given here; in the data, active = GI50 up to about 1.1 µM and inactive = higher.

Tests used:
Experiment in all cases: DTP human tumour cell line panel, 48 h
SF-268 = test system: SF-268
OVCAR-8 = test system: OVCAR-8
SNB-75 = test system: SNB-75
SF-295 = test system: SF-295
IGROV-1 = test system: IGROV-1
M14 = test system: M14
BT-549 = test system: BT-549
MOLT-4 = test system: MOLT-4
PC-3 = test system: PC-3
CCRF-CEM = test system: CCRF-CEM
DU-145 = test system: DU-145
786-0 = test system: 786-0
KM12 = test system: KM12
NCI-H460 = test system: NCI-H460
HCT-15 = test system: HCT-15
ACHN = test system: ACHN
NCI-H23 = test system: NCI-H23
T47D = test system: T47D
SF-539 = test system: SF-539
Malme-3M = test system: Malme-3M
CAKI-1 = test system: CAKI-1
NCI/ADR-RES = test system: NCI/ADR-RES
NCI-H522 = test system: NCI-H522
UACC-257 = test system: UACC-257
LOX IMVI = test system: LOX IMVI
SK-MEL-28 = test system: SK-MEL-28
HOP-62 = test system: HOP-62
NCI-H226 = test system: NCI-H226
MDA-MB-435 = test system: MDA-MB-435
COLO 205 = test system: COLO 205
HCC 2998 = test system: HCC 2998
OVCAR-5 = test system: OVCAR-5
HT-29 = test system: HT-29
OVCAR-3 = test system: OVCAR-3
RXF 393 = test system: RXF 393
EKVX = test system: EKVX
K562 = test system: K562
SW-620 = test system: SW-620
HOP-92 = test system: HOP-92
SNB-19 = test system: SNB-19
HCT-116 = test system: HCT-116
HL-60 = test system: HL-60
OVCAR-4 = test system: OVCAR-4
UACC-62 = test system: UACC-62
Hs-578T = test system: Hs-578T
UO-31 = test system: UO-31
U-251 = test system: U-251
MDA-N = test system: MDA-N
RPMI-8226 = test system: RPMI-8226
SN12C = test system: SN12C
SK-OV-3 = test system: SK-OV-3
SK-MEL-2 = test system: SK-MEL-2
MDA-MB-231 = test system: MDA-MB-231
A549 = test system: A549
TK-10 = test system: TK-10
SR = test system: SR
MCF7 = test system: MCF7
SK-MEL-5 = test system: SK-MEL-5

Measured: GI50

COc1c(-c2nc3ccc(N4CCN(C)CC4)nc3[nH]2)cc(OC)c2c1nc(CCl)n2C
26.3 µM: HCT-15
inactive: SF-268 22.4 µM | OVCAR-8 20.1 µM | SNB-75 12.6 µM | SF-295 31.8 µM | IGROV-1 18.4 µM | M14 16.9 µM | BT-549 18.6 µM | MOLT-4 18.1 µM | PC-3 11.2 µM | CCRF-CEM 25.2 µM | DU-145 25.4 µM | 786-0 17.9 µM | KM12 14.8 µM | NCI-H460 20.6 µM | ACHN 13.7 µM | NCI-H23 20.1 µM | T47D 16 µM | SF-539 4.99 µM | Malme-3M 17.5 µM | CAKI-1 16.6 µM | NCI/ADR-RES 56.9 µM | NCI-H522 10.5 µM | UACC-257 22.6 µM | LOX IMVI 10.8 µM | SK-MEL-28 26.9 µM | HOP-62 21.4 µM | NCI-H226 19.9 µM | MDA-MB-435 16.1 µM | COLO 205 14.4 µM | HCC 2998 15.7 µM | OVCAR-5 21.6 µM | HT-29 16.3 µM | OVCAR-3 28.1 µM | RXF 393 16 µM | EKVX 19.4 µM | K562 29 µM | SW-620 20.9 µM | HOP-92 22.8 µM | SNB-19 28.2 µM | HCT-116 32.2 µM | HL-60 26.5 µM | OVCAR-4 18.3 µM | UACC-62 10.4 µM | Hs-578T 32.9 µM | UO-31 16.5 µM | U-251 12.2 µM | MDA-N 30.5 µM | RPMI-8226 10.5 µM | SN12C 20.9 µM | SK-OV-3 28.8 µM | SK-MEL-2 11.6 µM | MDA-MB-231 19.2 µM | A549 27.8 µM

CCOC(=O)C1=C(c2ccccc2)N(C)c2ccccc2S1
14.6 µM: HCT-15
inactive: SF-268 29.4 µM | OVCAR-8 33.6 µM | SNB-75 38.6 µM | SF-295 35.8 µM | IGROV-1 32.4 µM | M14 34.5 µM | TK-10 46.5 µM | BT-549 21.5 µM | MOLT-4 32.4 µM | PC-3 29.9 µM | CCRF-CEM 31 µM | DU-145 44.2 µM | 786-0 31.8 µM | NCI-H460 24.7 µM | ACHN 24.1 µM | NCI-H23 20.1 µM | T47D 18.1 µM | SF-539 37.2 µM | Malme-3M 40.6 µM | CAKI-1 31 µM | NCI/ADR-RES 22.3 µM | NCI-H522 25.6 µM | UACC-257 31.6 µM | LOX IMVI 16.7 µM | SK-MEL-28 38.9 µM | HOP-62 36.4 µM | NCI-H226 21.7 µM | MDA-MB-435 33.2 µM | COLO 205 31.3 µM | OVCAR-5 35.1 µM | HT-29 17.4 µM | OVCAR-3 36 µM | EKVX 32 µM | K562 36.8 µM | SW-620 44.4 µM | HOP-92 44.5 µM | SNB-19 69.5 µM | HCT-116 25.2 µM | HL-60 37.4 µM | OVCAR-4 30.1 µM | UACC-62 19 µM | Hs-578T 23.3 µM | UO-31 22.4 µM | SR 31.6 µM | U-251 19.8 µM | RPMI-8226 17 µM | MCF7 36 µM | SN12C 23.9 µM | SK-OV-3 92.5 µM | SK-MEL-2 23.2 µM | MDA-MB-231 29.6 µM | SK-MEL-5 16.1 µM | A549 35.6 µM

COc1cc(N(CCC#N)CCC#N)ccc1C(/N=N/c1ccccc1C)=N\NC(=O)c1ccc(C)cc1
> 100 µM: HCT-15
inactive: SF-268 64.4 µM | OVCAR-8 71 µM | SF-295 > 100 µM | IGROV-1 75 µM | M14 > 100 µM | TK-10 > 100 µM | BT-549 98.2 µM | MOLT-4 28 µM | PC-3 59.3 µM | CCRF-CEM 15.2 µM | DU-145 > 100 µM | 786-0 36.6 µM | KM12 49.1 µM | NCI-H460 73.5 µM | NCI-H23 91.8 µM | T47D 38.2 µM | Malme-3M 34.7 µM | CAKI-1 > 100 µM | NCI/ADR-RES > 100 µM | NCI-H522 25.2 µM | UACC-257 61.2 µM | LOX IMVI 40.8 µM | SK-MEL-28 > 100 µM | HOP-62 > 100 µM | NCI-H226 > 100 µM | MDA-MB-435 29.3 µM | COLO 205 33.7 µM | HCC 2998 85.3 µM | OVCAR-5 > 100 µM | HT-29 85.3 µM | OVCAR-3 24.2 µM | RXF 393 > 100 µM | EKVX 28.4 µM | K562 29.8 µM | SW-620 72.9 µM | HOP-92 53.8 µM | SNB-19 63 µM | HCT-116 36.1 µM | HL-60 2.15 µM | OVCAR-4 59.8 µM | UACC-62 43.4 µM | Hs-578T > 100 µM | UO-31 76.2 µM | U-251 42.3 µM | MDA-N 23.8 µM | SN12C 44.1 µM | SK-OV-3 > 100 µM | SK-MEL-2 43.9 µM | MDA-MB-231 25.5 µM | SK-MEL-5 > 100 µM | A549 59.6 µM
